Like-named read-outs stand apart in the source and are kept apart here.
Columns and labels:
[1] = tested on: healthy animals; conditions: single dose to healthy mice, 3 mice per group, survival and weights recorded up to 14 days post injection
Description: (§1) The maximum tolerated dose (herein after MTD) is defined as the maximum amount of a given drug which can be administered acutely (i.e. in one intraperitoneal, intravenous, subcutaneous or oral single dose) to healthy animals, i.e. animals not grafted with tumors. The survival times and weights of the animals are recorded up to 14 days post injection. Five different doses of each drug are used for the determination of the MTD index. […] Each experimental group comprised 3 mice for the determination of the MTD index (expressed in mg/kg).

[2] = tested on: Six human cancer cell lines (Hs683, U-373MG, HCT-15, LoVo, A549, MCF-7); test: MTT test of overall cell growth; assay type: cell-based
Description: In order to characterize the in vitro activity of the compounds of the invention, MTT tests were performed to indirectly and rapidly measure, i.e. within 5 days, the effect of such a compound on the overall cell growth. The test measures the number of metabolically active living cells that are able to transform the yellow product 3-(4,5-dimethylthiazol-2-yl)-2,5-diphenyl tetrazolium bromide (herein referred as MTT) into the blue product formazan dye by mitochondrial reduction. The amount of formazan obtained at the end of the experiment was measured by means of a spectrophotometer and is directly proportional to the number of living cells. Determination of the optical density enables a quantitative measurement of the effect of the investigated compounds as compared to the control condition (untreated cells) and/or to other reference compounds (in casu mitonafide and amonafide).
Six human cancer cell lines described in table 1 were used in the MTT tests. These cell lines cover four histological cancer types, being glioma, colon, lung and breast cancers. Cells were allowed to grow in 96-well micro-wells with a flat bottom with an amount of 100 μl of cell suspension per well with 1,000 to 4,000 cells/well depending on the cell type used. Each cell line was seeded in an MEM 5% serum culture medium.
The detailed experimental procedure was as follows: after a 24-hour period of incubation at 37° C., the culture medium was replaced by 100 μl of fresh medium in which the compound to be tested was dissolved at the following molar concentrations: 10^−9 M, 5.10^−9 M, 10^−8 M, 5.10^−8 M, 10^−7 M, 5.10^−7 M, 10^−6 M, 5.10^−6 M and 10^−5 M. Each experiment was repeated 6 times.
After 72 hours of incubation at 37° C. with (experimental conditions) or without (control condition) the compound to be tested, the medium was replaced by 100 μl MTT dissolved in RPMI at a concentration of 1 mg/ml. The micro-wells were subsequently incubated during 3 hours at 37° C. and centrifuged at 400 g during 10 minutes. MTT was removed and formazan crystals formed were dissolved in 100 μl DMSO. The micro-wells were shaken for 5 minutes and read on a spectrophotometer at wavelengths of 570 nm (maximum formazan absorbance) and 630 nm (background noise).
For each experimental condition, the mean optical density was calculated, as well as the percentage of remaining living cells in comparison with the control.

[3] = in vivo; conditions: mouse
Description: as §1

[4] = tested on: L1210 (Mouse Leukemia); test: L1210 mouse leukemia model, survival; assay type: in vivo, mice; conditions: median day of death treated/control; for response vs control in vivo at 10 mg/kg / response vs control in vivo at 20 mg/kg / response vs control in vivo at 40 mg/kg / response vs control in vivo at 80 mg/kg / response vs control in vivo at 2.5 mg/kg / response vs control in vivo at 5 mg/kg: Mus musculus, L1210, ip; for response vs control in vivo at 2.5 mg/kg: read-out: T/C (%), dose 2.5 mg/kg intraperitoneally at days 1, 2, 3, 4, 7, 8, 9 and 10; for response vs control in vivo at 5 mg/kg: read-out: T/C (%), dose 5 mg/kg intraperitoneally at days 1, 2, 3, 4, 7, 8, 9 and 10
Description: L1210 is a syngeneic model (Mouse Leukemia) which may be used to define an optimal treatment regimen (doses and schedule) for subsequent testing of drugs in more expensive and time-consuming orthotopic human xenograft models. The model was performed with 5 mice per group, said mice being grafted at day 0 and the tested compounds being injected intraperitoneally (at the dose indicated in table 4) at days 1, 2, 3, 4, 7, 8, 9 and 10 respectively. The data shown in table 4 are T/C values which were calculated by dividing the median day of death in a treated group T by the median day of death in the control group C. T/C values of 130% or more (i.e. a prolongation of mice survival of 30% or more) indicate a significant prolongation of survival.
The experimental procedure of example 25 was repeated with compounds of examples 17, 19, 33 and 35, and the data obtained from this experiment are reported in table 7.

[5] = tested on: leukemia models in mice; conditions: background statement; cited from earlier work
[6] = tested on: human tumour xenografts in mice with colon, lung and mammary cancers; conditions: background statement; cited from earlier work
[7] = tested on: patients; conditions: patients receiving five daily doses; leading to some deaths; cited from earlier work
[8] = tested on: primary human solid tumours; conditions: Ajani et al. Invest New Drugs (1988) 6:79-83; cited from earlier work
[9] = read-out: T/C (%), dose 10 mg/kg intraperitoneally at days 1, 2, 3, 4, 7, 8, 9 and 10
[10] = read-out: T/C (%), dose 20 mg/kg intraperitoneally at days 1, 2, 3, 4, 7, 8, 9 and 10
[11] = Homo sapiens, 72 h, range of molar concentrations giving 50% inhibition of overall tumor cells growth, MTT, 72 hours incubation, six human cancer cell lines, read-out: IC50
[12] = dose 10 mg/kg intraperitoneally at days 1, 2, 3, 4, 7, 8, 9 and 10, read-out: T/C (%)
[13] = dose 20 mg/kg intraperitoneally at days 1, 2, 3, 4, 7, 8, 9 and 10, read-out: T/C (%)
[14] = dose 40 mg/kg intraperitoneally at days 1, 2, 3, 4, 7, 8, 9 and 10, read-out: T/C (%)
[15] = dose 80 mg/kg intraperitoneally at days 1, 2, 3, 4, 7, 8, 9 and 10, read-out: T/C (%)
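Wherever MTD is given: highest single acute dose (intraperitoneal, intravenous, subcutaneous or oral) tolerated by tumor-free mice, assessed across five dose levels per drug.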

In the case of `CN(C)CCN1C(=O)c2cccc3cc(/N=C\c4cc(O)ccc4O)cc(c23)C1=O.Cl` [Example 34], the MTD [1] is reported as 40 mg/kg.
For `CN(C)CCN1C(=O)c2cccc3cc(NC(=O)NC(=O)C(Cl)(Cl)Cl)cc(c23)C1=O` [Example 2, 2,2,2-trichloro-N-[({2-[2-(dimethylamino)ethyl]-1,3-dioxo-2,3-dihydro-1H-benzo[de]isoquinolin-5-yl}amino)carbonyl]acetamide], the IC50 ([2]; range of molar concentrations giving 50% inhibition of overall tumor cells growth, MTT, 72 hours incubation, six human cancer cell lines, read-out: IC50) was 0.5 to 1 µM, the MTD at 14 days [3] was > 160 mg/kg and the response vs control in vivo at 10 mg/kg [4, 9] was 128%. For the same compound, the response vs control in vivo at 20 mg/kg [4, 10] was 156%, the response vs control in vivo at 40 mg/kg ([4]; read-out: T/C (%), dose 40 mg/kg intraperitoneally at days 1, 2, 3, 4, 7, 8, 9 and 10) was 177% and the response vs control in vivo at 80 mg/kg ([4]; read-out: T/C (%), dose 80 mg/kg intraperitoneally at days 1, 2, 3, 4, 7, 8, 9 and 10) was 194%.
For `CN(C)CCN1C(=O)c2cccc3cc(N)cc(c23)C1=O` [amonafide, N-(2-dimethylaminoethyl)-3-amino-1,8-naphthalimide, reference compound], the “activity in leukemia models in mice” value [5] is given as “only moderate activity”, the IC50 [2, 11] is given as 1 to 5 µM and the “activity in human tumour xenografts in mice” value [6] is given as “no activity”. The myelotoxicity in patients [7] was “substantial myelotoxicity”, the MTD at 14 days [3] was 40 mg/kg and the response vs control in vivo at 2.5 mg/kg [4] was 120%. It also gave a response vs control in vivo at 5 mg/kg [4] of 140%, a response vs control in vivo at 10 mg/kg [4, 9] of 120% and a response vs control in vivo at 20 mg/kg [4, 10] of 120%. For the same compound, the “activity in primary human solid tumours in vitro” value [8] was “poor activity”.
`CN(C)CCN1C(=O)c2cccc3cc([N+](=O)[O-])cc(c23)C1=O` [mitonafide, reference compound] gave an IC50 [2, 11] of 1 to 5 µM, an MTD at 14 days [3] of 40 mg/kg and a response vs control in vivo at 2.5 mg/kg [4] of 107%. For the same compound, the response vs control in vivo at 5 mg/kg [4] was 140%, the response vs control in vivo at 10 mg/kg [4, 9] was 120% and the response vs control in vivo at 20 mg/kg [4, 10] was 193%.
With `CN(C)CCN1C(=O)c2cccc3cc(NC(=O)Nc4ccc(OC(F)(F)F)cc4)cc(c23)C1=O` [Example 10] the IC50 [2, 11] was 1 to 5 µM, the MTD at 14 days ([3]; intraperitoneal) was > 160 mg/kg and the response vs control in vivo at 10 mg/kg [4, 12] was 117%. For the same compound, the response vs control in vivo at 20 mg/kg [4, 13] was 156%, the response vs control in vivo at 40 mg/kg [4, 14] was 139% and the response vs control in vivo at 80 mg/kg [4, 15] was 194%.
For `CN(C)CCN1C(=O)c2cccc3cc(NC(=O)Nc4ccc5c(c4)OCO5)cc(c23)C1=O` [Example 9], the IC50 [2, 11] was 5 to 10 µM, the MTD at 14 days ([3]; intraperitoneal) was > 160 mg/kg and the response vs control in vivo at 10 mg/kg [4, 12] was 113%. The response vs control in vivo at 20 mg/kg [4, 13] was 140%, the response vs control in vivo at 40 mg/kg [4, 14] was 160% and the response vs control in vivo at 80 mg/kg [4, 15] was 187%.
With `CN(C)CCN1C(=O)c2cccc3cc(NC(=O)Nc4ccc(C#N)cc4)cc(c23)C1=O` [Example 7, N-[2-[2-(dimethylamino)ethyl]-1,3-dioxo-2,3-dihydro-1H-benzo[de]isoquinolin-5-yl]-N′-(4-cyanophenyl)urea] the IC50 [2, 11] was 1 to 5 µM, the MTD at 14 days ([3]; intraperitoneal) was > 160 mg/kg and the response vs control in vivo at 10 mg/kg [4, 12] was 140%. The response vs control in vivo at 20 mg/kg [4, 13] was 147%, the response vs control in vivo at 40 mg/kg [4, 14] was 147% and the response vs control in vivo at 80 mg/kg [4, 15] was 213%.
For `CN(C)CCN1C(=O)c2cccc3cc(N=Cc4cc5c(cc4[N+](=O)[O-])OCO5)cc(c23)C1=O` [Example 35, 5-{[(1Z)-benzo([1,3]dioxol-6-nitro)-5-yl-methylene]amino}-N-(2-[2-dimethylamino)ethyl]-1H-benzo[de]isoquinolin-1,3(2H)-dione], the IC50 [2, 11] was > 10 µM, the MTD at 14 days [3] was 80 mg/kg and the response vs control in vivo at 10 mg/kg [4, 12] was 213%. The response vs control in vivo at 20 mg/kg [4, 13] was 193%, the response vs control in vivo at 40 mg/kg [4, 14] was 280% and the response vs control in vivo at 80 mg/kg [4, 15] was > 300%.
Work on `CN(C)CCN1C(=O)c2cccc3cc(/N=C\c4cc(O)ccc4O)cc(c23)C1=O` [Example 19, 2-[2-(dimethylamino)ethyl]-5-{[(1Z)-(2,5-dihydroxyphenyl)methylene]amino}-1H-benzo[de]isoquinoline-1,3(2H)-dione] yielded an IC50 [2, 11] of 10 µM, an MTD at 14 days ([3]; intraperitoneal) of 80 mg/kg and a response vs control in vivo at 10 mg/kg [4, 12] of 150%. The response vs control in vivo at 20 mg/kg [4, 13] was 144%, the response vs control in vivo at 40 mg/kg [4, 14] was 231% and the response vs control in vivo at 80 mg/kg [4, 15] was 275%.
For `CN(C)CCN1C(=O)c2cccc3cc(N=Cc4ccc5c(c4)OCO5)cc(c23)C1=O` [Example 17, 5-{[(1Z)-1,3-benzodioxol-5-ylmethylene]amino}-N-{2-[2-(dimethylamino)ethyl]-1H-benzo[de]isoquinoline-1,3(2H)-dione], the IC50 [2, 11] was > 10 µM, the MTD at 14 days ([3]; intraperitoneal) was 80 mg/kg and the response vs control in vivo at 10 mg/kg [4, 12] was 120%. It also gave a response vs control in vivo at 20 mg/kg [4, 13] of 233%, a response vs control in vivo at 40 mg/kg [4, 14] of 207% and a response vs control in vivo at 80 mg/kg [4, 15] of 280%.
In the case of `CN(C)CCN1C(=O)c2cccc3cc(NC(=O)NC(=O)C(Cl)(Cl)Cl)cc(c23)C1=O.Cl` [Example 33, 2,2,2-trichloro-N-[({2-[2-(dimethylamino)ethyl]-1,3-dioxo-2,3-dihydro-1H-benzo[de]isoquinolin-5-yl}amino)carbonyl]acetamide hydrochloride], the IC50 ([2]; range of molar concentrations giving 50% inhibition of overall tumor cells growth, MTT, 72 hours incubation, six human cancer cell lines, hydrochloride, read-out: IC50) is reported as 5 to 10 µM, the MTD at 14 days [3] is reported as 120 mg/kg and the “T/C (%)” value ([4]; dose 10 mg/kg intraperitoneally at days 1, 2, 3, 4, 7, 8, 9 and 10) is reported as 148%. For the same compound, the “T/C (%)” value ([4]; dose 20 mg/kg intraperitoneally at days 1, 2, 3, 4, 7, 8, 9 and 10) was 138%, the “T/C (%)” value ([4]; dose 40 mg/kg intraperitoneally at days 1, 2, 3, 4, 7, 8, 9 and 10) was 186% and the “T/C (%)” value ([4]; dose 80 mg/kg intraperitoneally at days 1, 2, 3, 4, 7, 8, 9 and 10) was 200%.
With `CN(C)CCN1C(=O)c2cccc3cc(NC(=O)NCCCl)cc(c23)C1=O` [Example 5, N-[2-[2-(dimethylamino)ethyl]-1,3-dioxo-2,3-dihydro-1H-benzo[de]isoquinolin-5-yl]-N′-(2-chloroethyl)urea] the IC50 ([2]; Homo sapiens, 72 h) was 1 to 5 µM and the MTD at 14 days [3] was > 160 mg/kg.

Source: US20070117836A1, “NAPTHALIMIDE DERIVATIVES, METHODS FOR THEIR PRODUCTION AND PHARMACEUTICAL COMPOSITIONS THEREFROM” (priority 2004, published 2007)
